The target of assay [1] is T1, human C-terminal DNMT3A (a.a. 623-908) (Homo sapiens, UniProt Q9Y6K1).
T1 construct: The human C-terminal DNMT3A (a.a. 623-908); made in house
Description: hDNMT3A restriction-based fluorescence assay. It is filed as biochemical. As to conditions: for inhibition at 10 µM / inhibition at 32 µM: read-out: hDNMT 3A inhibition, Inhibition (%); for EC50: brackets: 95% confidence interval, read-out: hDNMT 3A inhibition EC50. An excerpt: hDNMT3A enzyme inhibition was adapted from the restriction-based fluorescence assay protocol as described in the literature (Ceccaldi et al. ChemBioChem 2011, 12, 1337-1345). Briefly, a 5′-labelled biotin oligonucleotide is hybridized to its complementary strand labelled with 6-carboxyfluorescein at the 3′-end into a 384 well microplate (black Optiplates; Perkin Elmer) pre-coated with avidin. The duplex contains a unique CpG site overlapping with a restriction site of a methylation sensitive restriction enzyme. The human C-terminal DNMT3A (a.a. 623-908), produced as described in the literature (Gros et al. Nucl. Acids Res. 2013, 41(19):e185), was added in each well (200 ng/well) and mixed with the chemical compounds at desired concentrations and freshly prepared AdoMet (20 μM final concentration) to start the reaction in a total volume of 50 μL. After 1 hour incubation at 37° C. each well were washed three times with PBS, Tween-20 0.05%, NaCl (500 mM) and three more times with PBST. Specific fluorescent signals were detected with the methylation-sensitive restriction enzyme HpyCH4IV (NEB) as described and measured on a Perkin Elmer Envision detector. The percentage of inhibition is reported. The formula used to calculate the percentage of inhibition is [(X−Y)/X]×100, where X is the signal determined in the absence of the inhibitor and Y is the signal obtained in the presence of the inhibitor. The concentration at which 50% of efficacy of inhibition is observed (EC50) was determined by analysis of a concentration range of the tested compound in triplicates. The non-linear regression fittings with sigmoidal dose-response (variable slope) were performed with GraphPad Prism 4.03 (GraphPad Software).

Assay [2] relates to luciferase reporter under the control of a methylated CMV promoter in leukemia KG-1 cells. Description: CMV-luc reexpression (luciferase reporter) in KG-1 cells. It is filed as cell-based, human. As to conditions: 24 hour incubation, fold induction vs DMSO, mean ± standard error. On the procedure: Aiming at identifying new DNMT inhibitors, plant extract samples were tested for their ability to reactivate gene expression upon use of an integrated luciferase reporter system under the control of a methylated CMV promoter in leukemia KG-1 cells which inhibits its expression (CMV-luc assay reported in following Table). […] The extract was fractionated by preparative HPLC. Identification of the active components was accomplished by HRMS and NMR spectroscopy. The pure compounds isolated from the extract through bio-guided fractionation are trilobine and bisbenzylisoquinoline analogue products. The active compounds were then further evaluated for their ability to inhibit DNMTs in vitro and DNA methylation in cancer cells.
KG-1 cells were stably transfected with the firefly luciferase reporter gene (luc+ from pGL3; Promega) under the control of the cytomegalovirus (CMV) promoter (from pEGFP-N1; Clontech Laboratories Inc.) partially methylated (50%). 20,000 cells per well were seeded in a 96-well plate. After 24 hour incubation in the presence of the test compound or solvant (DMSO), the induction of the promoter was measured by quantification of the luciferase signal with the Brite-lite assay system (PerkinElmer) according to the manufacturer's protocol. The luminescence was measured on an EnVision multilabel plate reader (PerkinElmer), and the data are expressed as the fold induction as compared with the DMSO control. The mean of three experiments and the standard error is reported.

In assay [3] the target is T2, His-DNMT1 (182 kDa, human) (Homo sapiens, UniProt P26358).
T2 construct: His; made in house
T2 sequence (P26358 whole entry): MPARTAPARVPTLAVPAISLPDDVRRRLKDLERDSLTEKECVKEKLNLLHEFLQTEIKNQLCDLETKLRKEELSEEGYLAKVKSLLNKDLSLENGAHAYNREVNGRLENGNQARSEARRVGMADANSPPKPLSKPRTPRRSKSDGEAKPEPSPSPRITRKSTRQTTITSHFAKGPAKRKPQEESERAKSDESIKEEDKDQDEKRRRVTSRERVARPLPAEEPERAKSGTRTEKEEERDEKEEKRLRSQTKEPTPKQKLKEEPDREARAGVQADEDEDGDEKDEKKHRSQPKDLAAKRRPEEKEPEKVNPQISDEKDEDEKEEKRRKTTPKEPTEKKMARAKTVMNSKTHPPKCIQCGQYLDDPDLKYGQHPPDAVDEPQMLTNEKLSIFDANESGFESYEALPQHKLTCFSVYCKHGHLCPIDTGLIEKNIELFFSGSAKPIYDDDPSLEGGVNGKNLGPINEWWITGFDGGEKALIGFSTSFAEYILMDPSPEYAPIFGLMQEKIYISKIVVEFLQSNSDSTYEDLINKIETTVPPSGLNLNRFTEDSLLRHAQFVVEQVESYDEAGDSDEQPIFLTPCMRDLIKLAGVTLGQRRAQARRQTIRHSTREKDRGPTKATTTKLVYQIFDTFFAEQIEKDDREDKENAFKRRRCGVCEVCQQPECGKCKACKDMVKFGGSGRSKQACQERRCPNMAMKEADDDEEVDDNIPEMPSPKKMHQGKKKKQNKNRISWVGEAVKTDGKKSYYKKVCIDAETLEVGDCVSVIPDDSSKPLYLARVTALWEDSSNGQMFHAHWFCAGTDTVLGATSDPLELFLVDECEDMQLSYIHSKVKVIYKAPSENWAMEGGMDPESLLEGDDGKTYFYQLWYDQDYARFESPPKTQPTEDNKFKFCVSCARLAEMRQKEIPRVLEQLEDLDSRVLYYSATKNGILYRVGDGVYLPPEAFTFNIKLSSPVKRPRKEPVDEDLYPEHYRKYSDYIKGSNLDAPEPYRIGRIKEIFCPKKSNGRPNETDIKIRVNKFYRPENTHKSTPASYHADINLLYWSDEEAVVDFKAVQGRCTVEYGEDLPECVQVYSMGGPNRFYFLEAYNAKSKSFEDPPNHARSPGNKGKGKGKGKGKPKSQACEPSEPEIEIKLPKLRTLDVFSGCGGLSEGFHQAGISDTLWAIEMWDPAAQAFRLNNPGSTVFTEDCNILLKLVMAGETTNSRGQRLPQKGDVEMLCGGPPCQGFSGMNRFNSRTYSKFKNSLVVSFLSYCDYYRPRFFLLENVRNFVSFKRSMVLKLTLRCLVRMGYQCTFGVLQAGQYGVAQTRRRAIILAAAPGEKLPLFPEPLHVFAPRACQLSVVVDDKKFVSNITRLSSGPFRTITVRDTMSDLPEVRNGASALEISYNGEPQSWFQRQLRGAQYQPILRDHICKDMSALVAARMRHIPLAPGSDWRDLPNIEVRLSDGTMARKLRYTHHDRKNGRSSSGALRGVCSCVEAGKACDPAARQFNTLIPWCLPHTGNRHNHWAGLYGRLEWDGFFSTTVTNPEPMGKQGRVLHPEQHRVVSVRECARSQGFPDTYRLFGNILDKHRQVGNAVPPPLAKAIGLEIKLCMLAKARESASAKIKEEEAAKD
Briefly: hDNMT1 assay ([methyl-3H] SAM Flashplate). It is filed as biochemical. Conditions: read-out: hDNMT1 percentage of inhibition. On the procedure:
His-DNMT1 (182 kDa, human) was cloned, expressed and purified as described in the literature (Halby et al. ChemBioChem 2012, 13, 157-165). The reaction was performed in a […] total reaction volume in low volume NBS™ 384-well microplates (Corning), containing the tested compound (up to 1% DMSO), 1 μM of a SAM/[methyl-^3H] SAM (3 TBq/mmol, PerkinElmer) mix in a ratio of 3-to-1 (isotopic dilution 1*:3), 0.3 μM of biotinylated hemimethylated DNA duplex (5′-GATmCGCmCGATGmCGmCGAATmCGmCGATmCGATGmCGAT-3′ and BIOT-5′-[…]-3′), and 90 nM of DNMT1 in methylation buffer (20 mM HEPES pH 7.2, 1 mM EDTA, 50 mM KCl, 25 μg/mL BSA). The reaction was incubated at 37° C. for 2 hours. 8 μL, are then transferred into a streptavidin 96-well scintillant coated Flashplate™ (PerkinElmer) containing 190 μL of 20 μM SAH in 50 mM Tris-HCl pH 7.4. The Flashplate™ was agitated at room temperature for 1 hour and read in 200 μL of 50 mM Tris-HCl pH 7.4 on TopCount NXT (PerkinElmer). The percentage of inhibition is reported. The formula used to calculate the percentage of inhibition is [(X−Y)/X]×100, where X is the signal determined in the absence of the inhibitor and Y is the signal obtained in the presence of the inhibitor.

T1 sequence (Q9Y6K1 627-912): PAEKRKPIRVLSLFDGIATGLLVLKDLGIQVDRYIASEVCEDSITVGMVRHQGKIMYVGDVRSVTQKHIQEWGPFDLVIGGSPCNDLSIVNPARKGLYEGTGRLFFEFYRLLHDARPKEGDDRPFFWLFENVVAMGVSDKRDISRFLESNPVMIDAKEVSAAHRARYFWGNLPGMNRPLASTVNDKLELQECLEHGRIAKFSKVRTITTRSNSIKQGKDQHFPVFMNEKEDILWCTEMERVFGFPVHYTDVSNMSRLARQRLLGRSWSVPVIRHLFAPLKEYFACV

Regarding `COc1cc2c3c4c1Oc1cc5c(cc1O4)C(=NCC5)Cc1ccc(O)c(c1)Oc1ccc(cc1)C[C@@H]3N(C)CC2` [Compound 8, 1,2-Dehydroapateline], in assay [1], the inhibition at 10 µM was 41%, the inhibition at 32 µM came out at 68% and the EC50 is greater than 10 µM.

For the molecule `COc1ccc2cc1Oc1ccc(cc1)C[C@@H]1NCCc3cc(OC)c4c(c31)Oc1cc3c(cc1O4)CCN[C@H]3C2` [Compound 7, Nortrilobine], the “Reactivation fold of luciferase gene reporter in KG-1 CMV-Luc” value (from here on “Reactivation fold”) in assay [2] (0.1 μM) is 1.1 ± 0.2 fold; in assay [2] (0.32 μM), 1.7 ± 0.5 fold; in assay [2] (0.5 μM) it was 1.9 ± 1.3 fold; in assay [2] (1 μM) it was 2.6 ± 1.8 fold; in assay [2] (3.2 μM) it was 5.4 ± 2.6 fold; in assay [2] (5 μM), 12.3 ± 1.2 fold. Moreover, the “Reactivation fold” value in assay [2] (10 μM) is reported as “cyt. tox”. In addition, the inhibition at 10 µM in assay [1] was 83%. Also, the inhibition at 32 µM in assay [1] was 94%; in assay [3], 99%.

`COc1cc2c3c4c1Oc1cc5c(cc1O4)[C@H](Cc1ccc(O)c(c1)Oc1ccc(cc1)C[C@@H]3N(C)CC2)NCC5` [Compound 6, Cocsoline]: in assay [1], the inhibition at 10 µM turned out to be 37%, the inhibition at 32 µM was 91% and the EC50 is greater than 10 µM.

`COc1cc2c3c4c1Oc1cc5c(cc1O4)[C@H](Cc1ccc(O)c(c1)Oc1ccc(cc1)C[C@@H]3NCC2)N(C)CC5` [Compound 5, 2′-Norcocsuline]: the “Reactivation fold” value in assay [2] (0.1 μM) was 1.0 ± 0.2 fold; in assay [2] (0.32 μM), 2.3 ± 0.7 fold; in assay [2] (0.5 μM), 2.1 ± 0.6 fold; in assay [2] (1 μM), 2.6 ± 1.6 fold; in assay [2] (3.2 μM), 3.9 ± 0.4 fold; in assay [2] (5 μM), 5.1 ± 0.1 fold. Moreover, in assay [2] (10 μM), the “Reactivation fold” value is “cyt. tox”. The inhibition at 10 µM in assay [1] came out at 73%. Further, the inhibition at 32 µM in assay [1] was found to be 88%.

For the molecule `COc1ccc2cc1Oc1ccc(cc1)C[C@H]1c3c(cc(OC)c4c3Oc3cc5c(cc3O4)CCN=C5C2)CCN1C` [Compound 9, 1,2-Dehydrotelobine], in assay [1], the inhibition at 10 µM is 37%, the inhibition at 32 µM came to 63% and the EC50 is greater than 10 µM.

As for `COc1ccc2cc1Oc1ccc(cc1)C[C@H]1c3c(cc(OC)c4c3Oc3cc5c(cc3O4)CCN(C)[C@H]5C2)CCN1C` [Compound 2, Isotrilobine], the “Reactivation fold” value in assay [2] (0.1 μM) is given as 1.0 ± 0.1 fold; in assay [2] (0.32 μM), 2.4 ± 1.4 fold; in assay [2] (0.5 μM), 2.8 ± 0.8 fold; in assay [2] (1 μM), 3.6 ± 2.9 fold; in assay [2] (3.2 μM) it was 2.4 ± 0.7 fold; in assay [2] (5 μM) it was 3.1 ± 0.6 fold. For the same molecule, in assay [2] (10 μM), the “Reactivation fold” value turned out to be 6.1 ± 0.5 fold. The inhibition at 10 µM in assay [1] was found to be 56%. Also, the inhibition at 32 µM in assay [1] was 76%.

On to `COc1ccc2cc1Oc1ccc(cc1)C[C@H]1c3c(cc(OC)c4c3Oc3cc5c(cc3O4)CCN[C@H]5C2)CCN1C` [Compound 3, O-Methylcocsoline], for which, in assay [1], the inhibition at 10 µM was determined as 95% and the inhibition at 32 µM was 100%.

Regarding `COc1cc2c3c4c1Oc1cc5c(cc1O4)[C@H](Cc1ccc(O)c(c1)Oc1ccc(cc1)C[C@@H]3N(C)CC2)N(C)CC5` [Compound 4, Cocsuline], in assay [1], the inhibition at 10 µM was determined as 23%, the inhibition at 32 µM was found to be 66% and the EC50 is greater than 10 µM.

The term inhibition denotes the relative decrease from the control value, in per cent. One may read the EC50 as the midpoint of the concentration-response curve.

The record behind these values is patent publication US10517863B2, “Trilobine and its natural analogs for use as a drug” (PIERRE FABRE MEDICAMENT, priority 2015, dated 2019).
